Measurements taken from PubChem BioAssay AID1963852 (Molecular Pharmacology Branch, DTP, NCI, 2024).

Test system: 282377-053-R-J1-PDC complex spheroid viability
Test: Anticancer human tumor 282377-053-R-J1-PDC patient-derived colon adenocarcinoma cell line growth inhibition [POLQ]
Conditions: for IC50: curve of first compound; for viability, T/C: stronger effect = lower value; active means viability on the fitted dose curve at most 10% of control; inactive means the rest
Summary of the method: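 Growth inhibition in 3D: complex spheroids (tumor PDC, HUVEC, MSC) treated with POLQ inhibitor combinations; where Cmax unknown, highest tested concentration 10 microM, except SN-38 at 1 microM.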

[1] = second compound 0.0316 µM, first compound 0.0316 µM
[2] = second compound 0.0316 µM, first compound 0.1 µM
[3] = second compound 0.0316 µM, first compound 0.316 µM
[4] = second compound 0.0316 µM, first compound 1 µM
[5] = second compound 0.1 µM, first compound 0.0316 µM
[6] = second compound 0.1 µM, first compound 0.1 µM
[7] = second compound 0.1 µM, first compound 0.316 µM
[8] = second compound 0.1 µM, first compound 1 µM
[9] = second compound 0.316 µM, first compound 0.0316 µM
[10] = second compound 0.316 µM, first compound 0.1 µM
[11] = second compound 0.316 µM, first compound 0.316 µM
[12] = second compound 0.316 µM, first compound 1 µM
[13] = second compound 1 µM, first compound 0.0316 µM
[14] = second compound 1 µM, first compound 0.1 µM
[15] = second compound 1 µM, first compound 0.316 µM
[16] = second compound 1 µM, first compound 1 µM
[17] = second compound 3.16 µM, first compound 0.0316 µM
[18] = second compound 3.16 µM, first compound 0.1 µM
[19] = second compound 3.16 µM, first compound 0.316 µM
[20] = second compound 3.16 µM, first compound 1 µM
[21] = second compound 10 µM, first compound 0.0316 µM
[22] = second compound 10 µM, first compound 0.1 µM
[23] = second compound 10 µM, first compound 0.316 µM
[24] = second compound 10 µM, first compound 1 µM
[25] = second compound 0.0316 µM, first compound 3.16 µM
[26] = second compound 0.0316 µM, first compound 10 µM
[27] = second compound 0.1 µM, first compound 3.16 µM
[28] = second compound 0.1 µM, first compound 10 µM
[29] = second compound 0.316 µM, first compound 3.16 µM
[30] = second compound 0.316 µM, first compound 10 µM
[31] = second compound 1 µM, first compound 3.16 µM
[32] = second compound 1 µM, first compound 10 µM
[33] = second compound 3.16 µM, first compound 3.16 µM
[34] = second compound 3.16 µM, first compound 10 µM
[35] = second compound 10 µM, first compound 3.16 µM
[36] = second compound 10 µM, first compound 10 µM
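Further: spheroids exposed to compounds for seven days.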
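Wherever viability, T/C is given: 100% = DMSO vehicle control viability.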

COc1cccc(OCCCN)c1-c1cc(Nc2cnc(C#N)cn2)n[nH]1 + COC1C(OC(N)=O)C(O)C(Oc2ccc3c(O)c(NC(=O)c4ccc(O)c(CC=C(C)C)c4)c(=O)oc3c2C)OC1(C)C
inactive: viability, T/C (second compound 0.0316 µM, first compound 0.00316 µM) 117% | viability, T/C (second compound 0.0316 µM, first compound 0.01 µM) 106% | viability, T/C [1] 92.7% | viability, T/C [2] 51.4% | viability, T/C [3] 37.4% | viability, T/C [4] 29.5% | viability, T/C (second compound 0.1 µM, first compound 0.00316 µM) 106% | viability, T/C (second compound 0.1 µM, first compound 0.01 µM) 114% | viability, T/C [5] 63.9% | viability, T/C [6] 46.2% | viability, T/C [7] 34.9% | viability, T/C [8] 25.6% | viability, T/C (second compound 0.316 µM, first compound 0.00316 µM) 118% | viability, T/C (second compound 0.316 µM, first compound 0.01 µM) 83.9% | viability, T/C [9] 75.2% | viability, T/C [10] 46.4% | viability, T/C [11] 31.5% | viability, T/C [12] 30.9% | viability, T/C (second compound 1 µM, first compound 0.00316 µM) 111% | viability, T/C (second compound 1 µM, first compound 0.01 µM) 76% | viability, T/C [13] 67.9% | viability, T/C [14] 60.6% | viability, T/C [15] 31% | viability, T/C [16] 33.2% | viability, T/C (second compound 3.16 µM, first compound 0.00316 µM) 87.9% | viability, T/C (second compound 3.16 µM, first compound 0.01 µM) 84.3% | viability, T/C [17] 74.3% | viability, T/C [18] 49.3% | viability, T/C [19] 46.9% | viability, T/C [20] 30.5% | viability, T/C (second compound 10 µM, first compound 0.00316 µM) 99.8% | viability, T/C (second compound 10 µM, first compound 0.01 µM) 81.4% | viability, T/C [21] 70.1% | viability, T/C [22] 47.4% | viability, T/C [23] 34.6% | viability, T/C [24] 26.5%
56.2 nM: IC50 (second compound 0.1 µM)
124 nM: IC50 (second compound 0.0316 µM)
111 nM: IC50 (second compound 1 µM)
93.6 nM: IC50 (second compound 10 µM)
148 nM: IC50 (second compound 3.16 µM)
92.6 nM: IC50 (second compound 0.316 µM)

Nc1ccn(C2OC(CO)C(O)C2(F)F)c(=O)n1 (stereo unspecified) + COC1C(OC(N)=O)C(O)C(Oc2ccc3c(O)c(NC(=O)c4ccc(O)c(CC=C(C)C)c4)c(=O)oc3c2C)OC1(C)C
inactive: viability, T/C [1] 80.7% | viability, T/C [2] 41.5% | viability, T/C [3] 28.9% | viability, T/C [4] 27.2% | viability, T/C [25] 22.7% | viability, T/C [26] 11.6% | viability, T/C [5] 79.7% | viability, T/C [6] 60.3% | viability, T/C [7] 23% | viability, T/C [8] 26% | viability, T/C [27] 20.7% | viability, T/C [28] 13.5% | viability, T/C [9] 107% | viability, T/C [10] 51.5% | viability, T/C [11] 32.5% | viability, T/C [12] 27.8% | viability, T/C [29] 21.1% | viability, T/C [30] 12.5% | viability, T/C [13] 93% | viability, T/C [14] 48% | viability, T/C [15] 32% | viability, T/C [16] 33.3% | viability, T/C [31] 21.8% | viability, T/C [32] 10.6% | viability, T/C [17] 76.5% | viability, T/C [18] 47.1% | viability, T/C [19] 27.9% | viability, T/C [20] 27.8% | viability, T/C [33] 21.3% | viability, T/C [34] 11.1% | viability, T/C [21] 90.2% | viability, T/C [22] 47.2% | viability, T/C [23] 28.1% | viability, T/C [24] 32.7% | viability, T/C [35] 24% | viability, T/C [36] 13.8%
83.7 nM: IC50 (second compound 0.0316 µM)
95.6 nM: IC50 (second compound 10 µM)
90.9 nM: IC50 (second compound 3.16 µM)
138 nM: IC50 (second compound 0.1 µM)
114 nM: IC50 (second compound 1 µM)
123 nM: IC50 (second compound 0.316 µM)

O=C(c1cc(Cc2n[nH]c(=O)c3ccccc23)ccc1F)N1CCN(C(=O)C2CC2)CC1 + COC1C(OC(N)=O)C(O)C(Oc2ccc3c(O)c(NC(=O)c4ccc(O)c(CC=C(C)C)c4)c(=O)oc3c2C)OC1(C)C
> 10000 nM: IC50 (second compound 0.0316 µM) | IC50 (second compound 0.1 µM) | IC50 (second compound 0.316 µM) | IC50 (second compound 1 µM) | IC50 (second compound 3.16 µM) | IC50 (second compound 10 µM)
inactive: viability, T/C [1] 128% | viability, T/C [2] 97.7% | viability, T/C [3] 105% | viability, T/C [4] 106% | viability, T/C [25] 79.1% | viability, T/C [26] 103% | viability, T/C [5] 109% | viability, T/C [6] 120% | viability, T/C [7] 90.5% | viability, T/C [8] 87.8% | viability, T/C [27] 105% | viability, T/C [28] 101% | viability, T/C [9] 107% | viability, T/C [10] 90.1% | viability, T/C [11] 99.1% | viability, T/C [12] 97.7% | viability, T/C [29] 117% | viability, T/C [30] 98% | viability, T/C [13] 116% | viability, T/C [14] 94.7% | viability, T/C [15] 103% | viability, T/C [16] 119% | viability, T/C [31] 106% | viability, T/C [32] 96% | viability, T/C [17] 98.8% | viability, T/C [18] 108% | viability, T/C [19] 113% | viability, T/C [20] 103% | viability, T/C [33] 107% | viability, T/C [34] 98.8% | viability, T/C [21] 94% | viability, T/C [22] 99.4% | viability, T/C [23] 102% | viability, T/C [24] 110% | viability, T/C [35] 96% | viability, T/C [36] 80.8%
